We go through 2 molecules from patent US10080752B2, “Treatment of brain and central nervous system tumors” (KADMON CORPORATION LLC, priority 2014, dated 2018).

Series [1] is described as follows: Penetration of the blood-brain barrier: plasma and brain concentrations after a single oral dose. The format is in vivo, Male CD-1 mice. As to conditions: mice, single dose 100 mg/kg oral gavage. As for the experimental part: The compound of Formula I was tested to determine bioavalability in tissues of the brain and CNS.
Male CD-1 mice (N=3/group) received a single dose of lapatinib or the compound of Formula I at 100 mg/kg via oral gavage. Animals were not food fasted prior to dosing. Dose volumes were calculated based on the animals' body weights measured before the study.
Plasma and tissue samples were collected 1, 4, 8 and 24 hours post dose (4 time-points/group, and 3 animals/time-point). Whole blood samples were collected into a Na heparin containing tube. Within 30 minutes of collection, the samples were centrifuged at approximately 3,000×g for 10 minutes at 2 to 8° C. to obtain plasma. The plasma samples were divided into 2 aliquots by transferring into 2 cryogenic vials and stored in a freezer at −75±15° C. prior to analysis. Tissues were collected after the blood was collected. Tissues (brain, liver and kidneys) were washed with ice-cold PBS, and the weight was measured and recorded. Each tissue was transferred into a glass vial and stored in a freezer at −75±15° C. prior to sample analysis.

Series [2] is described as follows: Penetration of the blood-brain barrier by quantitative whole body autoradiography. The format is in vivo, Lister Hooded partially pigmented male rats. As to conditions: rats. As to the method:
The compound of Formula 1 was tested to determine bio-distribution in tissues of the brain and CNS.
Lister Hooded partially pigmented male rats (N=1 rat per time point) received a single dose of the compound of Formula 1 at 30 mg/kg body weight (^14C labeled, 3.7 MBq/kg body weight) via oral gavage. Animals were not fasted prior to dosing.
Six rats (age 8-10 weeks old) were administered a single oral dose of [^14C]-labeled Formula 1; total dose of 30 mg/kg and a total radioactivity dose of 3.7 MBq/kg (100 μCi/kg). One rat/time point was euthanized by CO2 overdose at each of the following times after dose administration: 1, 6, 24, 72, 120 and 168 hours, followed by immediate snap freezing in hexane/solid CO2, subsequent freezing at −20° C., followed by whole-body autoradiography.

Series [3] concerns GL261-luc2 luciferase expressing cells. The series can be described thus: Efficacy alone or in combination with irradiation in an intracranial glioma model in mice. In kind it is in vivo, C57BL/6 albino female mice. As to conditions: 70 mg/kg once daily, 5 days on/2 days off, oral gavage, FIG. 2. As to the method:
The compound of Formula 1 was tested to determine antitumor effects when tumors are growing in the brain. GL261-luc2 luciferase expressing cells were implanted intracranially (2 mm right lateral and 1 mm anterior from Bregma, 2-3 mm down from burr hole) into C57BL/6 albino female mice (N=14 per treatment group). Beginning 8 days after cell injection, mice received vehicle or the compound of Formula I at 70 mg/kg body weight (once daily, 5 days on/2 days off schedule) via oral gavage, with or without head-only irradiation (once daily for 5 days). Tumor burden in the brain was evaluated utilizing bioluminescence.

The conditions of series [4]: comparator in FIG. 1, 100 mg/kg oral gavage in mice; cited from earlier work.

For `COc1cc2c(Nc3ccc(Cl)c(Cl)c3F)ncnc2cc1OCC1C[C@@H]2CN(C)C[C@@H]2C1` (stereo partly drawn) [Formula 1, N-(3,4-dichloro-2-fluorophenyl)-7-({[(3aR,6aS)-2-methyloctahydrocyclopenta[c]pyrrol-5-yl]methyl}oxy)-6-(methyloxy)quinazolin-4-amine], the “Concentration observed in CNS tissue compared with blood” value in series [1] (FIG. 1) is on record as “substantially higher”. Further, the “Time for which the CNS tissue concentration remained higher than in blood” value in series [1] (duration of the assay) is “at least 24 hours”. Further, the “Crossing of the blood brain barrier / concentrations in CNS and brain tissue” value in series [1] (samples 1, 4, 8 and 24 hours post dose, FIG. 1) was “crossed the blood brain barrier and attained high concentrations in CNS and brain tissue”. Moreover, in series [2] (single oral dose 30 mg/kg 14C labeled (3.7 MBq/kg), at 6 and 24 hours after dosing), the “Concentrations of radioactivity in brain compared with blood” value is given as “comparable to that in blood”. Moreover, the “Penetration of the blood brain barrier” value in series [2] (single oral dose 30 mg/kg 14C labeled, whole-body autoradiography) is “good penetration of the blood brain barrier”. The “Growth of glioma tumors in the brain (tumor burden by bioluminescence)” value in series [3] (from 8 days after cell injection, alone) was “reduced the growth of glioma tumors in the brain”. Moreover, the “Anti-tumor effects of irradiation on tumors in the brain (tumor burden by bioluminescence)” value in series [3] (with head-only irradiation once daily for 5 days) is recorded as “increased the anti-tumor effects of irradiation on tumors in the brain”.
Turning to `CS(=O)(=O)CCNCc1ccc(-c2ccc3ncnc(Nc4ccc(OCc5cccc(F)c5)c(Cl)c4)c3c2)o1` [lapatinib], the “Crossing of the blood-brain barrier (comparator, as stated in legend of FIG. 1)” value in series [4] is recorded as “does not cross the blood-brain barrier”.
